The text below walks through data of patent EP3339292A1, “COCRYSTALS OF APREMILAST” (Zaklady Farmaceutyczne Polpharma SA, priority 2016, dated 2018).

Common to all, as to type: physicochemical
Data set [1] is described as follows: Moisture sorption analysis (Dynamic Vapour Sorption, DVS). The conditions noted are these: result in words. As for the experimental part: Water Vapour Sorption isotherms were obtained using a Dynamic Vapour Sorption apparatus (model: DVS - Advantage, supplier: Surface Measurement Systems Limited). The DVS apparatus consists of an ultra-microbalance housed inside a temperature-controlled cabinet. The sample was placed into a DVS sample pan under a stream of nitrogen (200 sccm) at 25°C. The humidity was increased ramping in 10% RH (relative humidity) steps from close to 0% RH to 90% RH (sorption phase). Next the humidity was decreased in a similar fashion for the desorption phase. The sample was held at each RH step for mass stabilization (dm/dt 0.02 %/min) but not less than 10 minutes. Two cycles of sorption and desorption were investigated.

The nature of data set [2]: Dissolution studies (Ph. Eur. paddle method, tablets, HPLC analysis). The conditions noted are these: buffer pH 6.8 + 0.3% SLS, result in words. As for the experimental part:
Dissolution studies were performed using a Hanson SR8PLUS dissolution apparatus, according to European Pharmacopoeia apparatus, paddle method. The samples were tested in 900mL pH 6.8 with 0.3% SLS at 37.0°C +/- 0.5°C and the paddle rotation speed was set at 75 rpm. Dissolution study was conducted for 60min and samples were analyzed using HPLC method.
• Injection Volume: 0.5, 0.2 µl; • Run Time: 15.0 minutes; • Column: Symmetry C18; 250x4,6mm; 5µm, Vial: 1:A,1, 1:c,7, 1:c,8; • Mobile phase: gradient: acetonitrile : buffer (1 vol. TEA and 150 vol. 2,7g/l KH2PO4, pH2,0 adjust with H3PO4); • Column temp: 25°C; and • Flow: 1 ml/min.

Another data set can be described thus: Solubility of cocrystal. The conditions noted are these: RT.

For the compound `CCOc1cc([C@@H](CS(C)(=O)=O)N2C(=O)c3cccc(NC(C)=O)c3C2=O)ccc1OC.Cn1c(=O)c2c(ncn2C)n(C)c1=O` [APM-CAF, Cocrystal of N-[2-[(1 S)-1-(3-ethoxy-4-methoxyphenyl)-2-(methylsulfonyl)ethyl]-1,3-dioxo-2,3-dihydro-1H-isoindol-4-yl]acetamide and 1,3,7-trimethylpurine-2,6-dione (caffeine)], in data set [1], the hygroscopicity result is “slightly hygroscopic”. The “dissolution profile compared to prior art Form B of Apremilast” value in data set [2] is on record as “higher dissolution rate”.
`CCOc1cc([C@@H](CS(C)(=O)=O)N2C(=O)c3cccc(NC(C)=O)c3C2=O)ccc1OC.O=C(O)c1ccc(O)cc1` [APM-4HB, Cocrystal of N-[2-[(1S)-1-(3-ethoxy-4-methoxyphenyl)-2-(methylsulfonyl)ethyl]-1,3-dioxo-2,3-dihydro-1H-isoindol-4-yl]acetamide and 4-hydroxybenzoic acid]: the hygroscopicity entry in data set [1] is recorded as “slightly hygroscopic”. Further, the Solubility entry in the data set “Solubility of cocrystal” is given as “Solubility: 42.5µg/ml (RT)”. Besides, the “dissolution profile compared to prior art Form B of Apremilast” value in data set [2] (listed as cocrystal of Apremilast with 4-hydroxybenzoic acid) was “higher dissolution rate”; in data set [2] (listed as cocrystals of Apremilast with 4-hydroxybenzoic acid), “superior dissolution profile”.
